Laboratory results reported in ChEMBL document CHEMBL1154498, “Clinical stage EGFR inhibitors irreversibly alkylate Bmx kinase” (Bioorg Med Chem Lett, 2008).

What was measured:
[1] = target: T1, Tyrosine-protein kinase JAK3 (Homo sapiens, UniProt P52333); assay: Inhibition of JAK3
T1 sequence (P52333 whole entry): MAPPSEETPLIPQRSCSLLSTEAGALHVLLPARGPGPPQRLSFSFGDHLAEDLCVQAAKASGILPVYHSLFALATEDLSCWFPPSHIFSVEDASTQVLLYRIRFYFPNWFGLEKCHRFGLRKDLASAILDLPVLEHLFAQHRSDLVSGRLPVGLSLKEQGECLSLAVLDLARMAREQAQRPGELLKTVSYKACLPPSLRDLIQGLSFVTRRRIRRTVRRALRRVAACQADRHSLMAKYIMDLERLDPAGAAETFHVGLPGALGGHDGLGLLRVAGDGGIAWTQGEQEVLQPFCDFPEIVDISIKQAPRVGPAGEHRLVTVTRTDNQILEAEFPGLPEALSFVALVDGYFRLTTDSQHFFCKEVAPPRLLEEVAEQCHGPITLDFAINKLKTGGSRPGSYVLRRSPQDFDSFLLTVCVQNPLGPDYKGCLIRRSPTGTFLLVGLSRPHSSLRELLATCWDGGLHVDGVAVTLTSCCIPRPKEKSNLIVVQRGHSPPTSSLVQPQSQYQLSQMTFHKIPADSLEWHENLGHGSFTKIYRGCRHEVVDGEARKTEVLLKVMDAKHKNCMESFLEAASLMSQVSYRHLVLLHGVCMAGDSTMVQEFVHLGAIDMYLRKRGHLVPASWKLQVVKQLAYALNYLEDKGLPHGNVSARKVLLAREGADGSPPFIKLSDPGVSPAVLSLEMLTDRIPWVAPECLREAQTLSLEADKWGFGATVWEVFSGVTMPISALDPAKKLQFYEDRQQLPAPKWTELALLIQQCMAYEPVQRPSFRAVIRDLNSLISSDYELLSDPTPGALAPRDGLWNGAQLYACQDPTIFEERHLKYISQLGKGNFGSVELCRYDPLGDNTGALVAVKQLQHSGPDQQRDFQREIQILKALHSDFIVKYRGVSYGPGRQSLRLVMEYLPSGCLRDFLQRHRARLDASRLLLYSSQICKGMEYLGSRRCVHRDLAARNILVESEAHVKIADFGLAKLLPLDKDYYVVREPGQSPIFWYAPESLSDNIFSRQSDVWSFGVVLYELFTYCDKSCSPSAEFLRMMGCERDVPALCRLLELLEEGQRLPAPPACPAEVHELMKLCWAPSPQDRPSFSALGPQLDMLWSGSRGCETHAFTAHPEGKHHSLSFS

[2] = target: Tyrosine-protein kinase Blk (Homo sapiens, UniProt P51451); assay: Inhibition of Blk
[3] = target: Receptor tyrosine-protein kinase erbB-4 (Homo sapiens, UniProt Q15303); assay: Inhibition of HER4
[4] = target: Tyrosine-protein kinase BTK (Homo sapiens, UniProt Q06187); assay: Inhibition of Btk
[5] = target: T2, Tyrosine-protein kinase ITK/TSK (Homo sapiens, UniProt Q08881); assay: Inhibition of Itk
T2 sequence (Q08881 whole entry): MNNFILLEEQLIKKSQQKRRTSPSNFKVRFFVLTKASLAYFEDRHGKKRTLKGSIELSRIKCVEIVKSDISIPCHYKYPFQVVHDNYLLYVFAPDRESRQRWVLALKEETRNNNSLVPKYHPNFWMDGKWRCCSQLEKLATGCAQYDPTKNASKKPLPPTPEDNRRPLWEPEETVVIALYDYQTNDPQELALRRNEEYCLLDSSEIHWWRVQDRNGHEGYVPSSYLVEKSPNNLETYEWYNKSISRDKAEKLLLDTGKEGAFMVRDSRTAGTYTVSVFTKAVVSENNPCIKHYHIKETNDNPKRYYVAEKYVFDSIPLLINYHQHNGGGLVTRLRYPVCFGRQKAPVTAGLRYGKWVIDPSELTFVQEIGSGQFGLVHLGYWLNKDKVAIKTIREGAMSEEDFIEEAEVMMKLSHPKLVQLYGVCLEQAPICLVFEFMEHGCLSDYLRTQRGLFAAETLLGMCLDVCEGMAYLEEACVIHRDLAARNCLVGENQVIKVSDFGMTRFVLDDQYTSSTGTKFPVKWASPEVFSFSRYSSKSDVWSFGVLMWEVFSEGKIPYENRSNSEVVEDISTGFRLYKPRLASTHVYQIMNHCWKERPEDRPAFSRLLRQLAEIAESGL

[6] = target: Receptor tyrosine-protein kinase erbB-2 (Homo sapiens, UniProt P04626); assay: Inhibition of HER2
[7] = target: T3, Serine/threonine-protein kinase STK11 (Homo sapiens, UniProt Q15831); assay: Inhibition of Lkb1
T3 sequence (Q15831 whole entry): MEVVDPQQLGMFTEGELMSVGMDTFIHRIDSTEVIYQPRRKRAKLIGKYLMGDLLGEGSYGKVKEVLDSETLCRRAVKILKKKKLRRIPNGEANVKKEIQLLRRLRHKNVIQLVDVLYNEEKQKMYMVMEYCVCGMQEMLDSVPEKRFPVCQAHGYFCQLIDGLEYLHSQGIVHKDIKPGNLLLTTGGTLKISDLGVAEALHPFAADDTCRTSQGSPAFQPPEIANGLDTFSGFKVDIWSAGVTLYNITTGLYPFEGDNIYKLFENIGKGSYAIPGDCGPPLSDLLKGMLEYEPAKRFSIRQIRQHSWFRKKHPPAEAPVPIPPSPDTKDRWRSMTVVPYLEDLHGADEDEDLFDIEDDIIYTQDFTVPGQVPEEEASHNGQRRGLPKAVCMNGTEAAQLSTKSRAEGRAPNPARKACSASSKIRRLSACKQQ

Tyrosine-protein kinase BTK, sequence (Q06187 whole entry): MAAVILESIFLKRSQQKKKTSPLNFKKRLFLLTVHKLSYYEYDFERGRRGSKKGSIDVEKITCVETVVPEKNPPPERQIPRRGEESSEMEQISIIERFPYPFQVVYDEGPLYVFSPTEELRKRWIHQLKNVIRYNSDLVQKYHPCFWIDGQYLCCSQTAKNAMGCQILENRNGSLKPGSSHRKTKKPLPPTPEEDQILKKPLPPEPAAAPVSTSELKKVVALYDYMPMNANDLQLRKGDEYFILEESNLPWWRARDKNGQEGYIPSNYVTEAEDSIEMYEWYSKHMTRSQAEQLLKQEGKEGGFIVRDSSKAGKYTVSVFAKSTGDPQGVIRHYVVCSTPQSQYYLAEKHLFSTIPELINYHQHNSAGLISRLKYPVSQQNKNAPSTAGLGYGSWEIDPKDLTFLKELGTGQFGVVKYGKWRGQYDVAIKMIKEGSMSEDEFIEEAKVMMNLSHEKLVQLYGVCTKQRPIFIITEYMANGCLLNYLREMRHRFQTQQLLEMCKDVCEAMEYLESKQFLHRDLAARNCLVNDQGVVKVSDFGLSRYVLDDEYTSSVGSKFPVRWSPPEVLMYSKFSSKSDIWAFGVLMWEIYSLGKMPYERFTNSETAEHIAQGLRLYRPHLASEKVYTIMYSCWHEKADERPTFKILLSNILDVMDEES
Receptor tyrosine-protein kinase erbB-2, sequence (P04626 whole entry): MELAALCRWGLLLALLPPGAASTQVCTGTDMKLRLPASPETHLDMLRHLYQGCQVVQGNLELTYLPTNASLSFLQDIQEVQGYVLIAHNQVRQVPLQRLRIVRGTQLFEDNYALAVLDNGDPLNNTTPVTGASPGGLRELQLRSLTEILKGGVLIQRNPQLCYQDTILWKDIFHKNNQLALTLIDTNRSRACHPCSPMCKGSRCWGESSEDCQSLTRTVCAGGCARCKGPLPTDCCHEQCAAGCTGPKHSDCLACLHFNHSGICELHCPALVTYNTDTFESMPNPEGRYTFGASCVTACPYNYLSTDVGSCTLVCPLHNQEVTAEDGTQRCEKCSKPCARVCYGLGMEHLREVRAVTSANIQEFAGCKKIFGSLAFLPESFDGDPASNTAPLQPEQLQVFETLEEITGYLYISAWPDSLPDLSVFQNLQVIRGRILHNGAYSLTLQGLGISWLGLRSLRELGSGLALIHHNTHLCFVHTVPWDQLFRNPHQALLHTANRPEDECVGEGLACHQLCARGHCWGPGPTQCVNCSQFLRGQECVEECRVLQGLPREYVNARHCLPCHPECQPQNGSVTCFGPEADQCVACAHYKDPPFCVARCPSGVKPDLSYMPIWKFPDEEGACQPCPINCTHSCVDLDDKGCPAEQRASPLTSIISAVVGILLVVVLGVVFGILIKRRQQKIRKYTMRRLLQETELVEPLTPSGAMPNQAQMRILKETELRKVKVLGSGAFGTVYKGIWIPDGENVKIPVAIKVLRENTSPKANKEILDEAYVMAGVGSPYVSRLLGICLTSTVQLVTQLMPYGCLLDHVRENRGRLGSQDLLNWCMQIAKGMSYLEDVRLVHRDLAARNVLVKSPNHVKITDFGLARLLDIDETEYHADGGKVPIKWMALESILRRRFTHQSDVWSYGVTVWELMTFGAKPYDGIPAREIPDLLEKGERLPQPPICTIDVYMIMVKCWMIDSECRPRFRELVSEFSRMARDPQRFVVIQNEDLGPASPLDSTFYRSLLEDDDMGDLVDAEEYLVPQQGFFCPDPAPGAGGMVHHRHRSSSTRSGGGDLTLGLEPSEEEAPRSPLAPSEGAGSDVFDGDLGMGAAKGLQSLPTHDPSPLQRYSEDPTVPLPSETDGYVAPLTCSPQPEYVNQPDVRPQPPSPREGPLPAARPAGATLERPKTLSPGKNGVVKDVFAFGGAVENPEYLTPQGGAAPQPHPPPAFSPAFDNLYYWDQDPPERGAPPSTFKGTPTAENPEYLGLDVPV
Tyrosine-protein kinase Blk, sequence (P51451 whole entry): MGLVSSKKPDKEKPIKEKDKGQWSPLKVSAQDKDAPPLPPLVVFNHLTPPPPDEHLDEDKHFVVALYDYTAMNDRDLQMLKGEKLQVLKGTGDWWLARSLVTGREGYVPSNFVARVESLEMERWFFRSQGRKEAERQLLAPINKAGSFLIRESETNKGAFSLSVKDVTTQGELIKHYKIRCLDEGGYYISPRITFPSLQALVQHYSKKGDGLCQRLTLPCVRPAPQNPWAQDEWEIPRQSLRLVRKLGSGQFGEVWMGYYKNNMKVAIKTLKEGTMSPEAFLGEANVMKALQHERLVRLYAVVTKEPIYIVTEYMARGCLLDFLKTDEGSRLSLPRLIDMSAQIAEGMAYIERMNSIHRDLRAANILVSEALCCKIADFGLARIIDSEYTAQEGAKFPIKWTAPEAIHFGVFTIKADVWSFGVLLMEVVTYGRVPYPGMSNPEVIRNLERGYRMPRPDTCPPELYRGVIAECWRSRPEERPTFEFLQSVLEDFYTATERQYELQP
Receptor tyrosine-protein kinase erbB-4, sequence (Q15303 whole entry): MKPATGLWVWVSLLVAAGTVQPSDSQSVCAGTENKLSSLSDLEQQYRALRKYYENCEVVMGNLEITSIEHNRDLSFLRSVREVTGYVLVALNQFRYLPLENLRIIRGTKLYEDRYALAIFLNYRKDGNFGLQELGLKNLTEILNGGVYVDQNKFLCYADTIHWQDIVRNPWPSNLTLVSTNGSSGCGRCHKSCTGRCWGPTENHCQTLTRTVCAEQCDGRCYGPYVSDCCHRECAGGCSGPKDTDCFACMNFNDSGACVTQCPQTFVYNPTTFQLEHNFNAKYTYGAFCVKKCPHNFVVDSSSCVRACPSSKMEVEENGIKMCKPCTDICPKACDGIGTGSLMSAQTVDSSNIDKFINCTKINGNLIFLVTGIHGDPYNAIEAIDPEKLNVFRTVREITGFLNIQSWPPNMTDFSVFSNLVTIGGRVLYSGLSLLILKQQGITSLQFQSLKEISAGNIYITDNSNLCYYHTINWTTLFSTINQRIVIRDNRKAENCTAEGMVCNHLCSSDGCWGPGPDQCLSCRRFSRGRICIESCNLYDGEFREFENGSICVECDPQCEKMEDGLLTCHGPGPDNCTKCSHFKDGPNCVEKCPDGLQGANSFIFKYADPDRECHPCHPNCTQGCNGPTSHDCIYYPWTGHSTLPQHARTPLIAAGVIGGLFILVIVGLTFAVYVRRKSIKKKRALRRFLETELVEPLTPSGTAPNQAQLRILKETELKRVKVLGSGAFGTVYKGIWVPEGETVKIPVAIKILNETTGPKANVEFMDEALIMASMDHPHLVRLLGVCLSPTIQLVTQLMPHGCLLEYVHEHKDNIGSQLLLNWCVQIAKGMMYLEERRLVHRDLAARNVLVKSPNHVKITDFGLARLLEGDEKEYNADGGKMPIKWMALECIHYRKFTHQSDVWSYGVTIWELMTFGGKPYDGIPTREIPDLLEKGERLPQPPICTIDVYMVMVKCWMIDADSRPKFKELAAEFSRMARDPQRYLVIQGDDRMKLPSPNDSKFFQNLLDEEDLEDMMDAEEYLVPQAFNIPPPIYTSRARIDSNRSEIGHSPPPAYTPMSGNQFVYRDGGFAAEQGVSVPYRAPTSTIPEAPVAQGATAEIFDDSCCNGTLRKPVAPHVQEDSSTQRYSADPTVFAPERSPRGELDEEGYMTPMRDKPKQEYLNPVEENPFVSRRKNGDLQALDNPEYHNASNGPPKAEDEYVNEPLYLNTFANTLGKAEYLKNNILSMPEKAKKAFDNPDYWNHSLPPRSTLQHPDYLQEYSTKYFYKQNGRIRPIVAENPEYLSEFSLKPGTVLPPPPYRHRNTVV

C=CC(=O)Nc1ccc2ncnc(Nc3cccc(Br)c3)c2c1
IC50 [1]: 3.14 µM | IC50 [2]: 5.47 µM | IC50 [3]: 0.012 µM | IC50 [4]: 5.83 µM | IC50 [5]: > 30 µM | IC50 [6]: 0.024 µM | IC50 [7]: > 10 µM

C=CC(=O)Nc1cc2c(Nc3ccc(F)c(Cl)c3)ncnc2cc1OCCCN1CCOCC1 [CANERTINIB]
IC50 [4]: 0.185 µM
